# Measured values: patent publication US10571469B2, “Kit for labelling bacteria” (Centre National de la Recherche Scientifique (CNRS), priority 2012, dated 2020)
# Legend:
# E. coli K12 = test: Metabolic LPS labelling with KDO-N3, Cu(I) click with A488-yne, fluorescence microscopy; format: cell-based, Escherichia coli
# E. coli 086 = test: Metabolic labelling with KDO-N3, click chemistry, fluorescence microscopy; format: cell-based, Escherichia coli; settings: KDO-N3 4 mM, 12 hours; A488-yne-Cu(I) click 60 min
# S. typhimurium 12023 = test: as above; format: cell-based, Salmonella typhimurium; settings: KDO-N3 4 mM, 12 hours; A488-yne-Cu(I) click 60 min
# [1] = test system: Legionella pneumophila strain Paris; format: cell-based; settings: KDO-N3 4 mM, 12 hours; A488-yne-Cu(I) click 60 min
# Shewanella oneidensis = test: Metabolic labelling with KDO-N3, click chemistry, fluorescence microscopy (negative control strain); format: cell-based; settings: KDO-N3 4 mM, 12 hours, 28° C.; A488-yne-Cu(I) click 60 min
# Bacillus subtilis = test: as above; format: cell-based; settings: Gram positive; KDO-N3 4 mM, 12 hours; A488-yne-Cu(I) click 60 min
# Staphylococcus aureus = test: as above; format: cell-based; settings: Gram positive; KDO-N3 4 mM, 12 hours; A488-yne-Cu(I) click 60 min
# [2] = mixture with B. subtilis, LB, 12 hours, 696 analyzed cells
# [3] = mixture with E. coli, LB, 12 hours, 696 analyzed cells
smiles,measurement,setting,value
"[N-]=[N+]=NC[C@@H](O)[C@@H](O)[C@H](O)[C@H](O)CC(=O)C(=O)O [KDO-N3, 8-azido-3,8-dideoxy-D-manno-octulosonic acid]",cell-surface labeling,"E. coli K12; KDO-N3 4 mM, 12 hours, A488-yne-Cu(I) click 60 min",efficient and well defined cell-surface labeling
same,labeling of bacteria (fluorescence),"E. coli K12; […], click with TGTA and A488-yne, after 5 min, control without KDO-N3 no signal",very bright labeling
same,location of fluorescence,"E. coli K12; after click labelling with A488-yne, 5 min",mostly evident around the cell periphery
same,cell-surface labeling,E. coli 086,efficient and well defined cell-surface labeling
same,cell-surface labeling,S. typhimurium 12023,efficient and well defined cell-surface labeling
same,cell-surface labeling,[1],efficient and well defined cell-surface labeling
same,cell-surface labeling,Shewanella oneidensis,no labeling
same,cell-surface labeling,Bacillus subtilis,no labeling
same,cell-surface labeling,Staphylococcus aureus,no labeling
same,E. coli KDO negative,"E. coli K12 sodA-mCherry; 9 cells, standard method error range about 10%",about 2%
same,assimilation in E. coli cells of the mixture,E. coli K12 sodA-mCherry; mixture with B. subtilis,assimilated in substantially only cultivable E. coli cells
same,"KDO-N3+ cells, mCherry + (E. coli)",E. coli K12 sodA-mCherry; [2],517
same,"KDO-N3− cells, mCherry + (E. coli)",E. coli K12 sodA-mCherry; [2],9
same,B. subtilis false positive,B. subtilis; 4 KDO-N3+ B. subtilis cells,about 2%
same,assimilation in B. subtilis cells of the mixture,B. subtilis; mixture with E. coli,not in cultivable B. subtilis cells
same,"KDO-N3+ cells, mCherry − (B. subtilis)",B. subtilis; [3],4
same,"KDO-N3− cells, mCherry − (B. subtilis)",B. subtilis; [3],166
